Assay results taken from US12704520B2, “Melanogenesis detection method using FAM86A” (Research & Business Foundation Sungkyunkwan University, priority 2019, dated 2026).
One block for each substance: values may come before it.

Assays:
FAM86A (NM_201400.4) = assay: shRNA mean knockdown level of FAM86A (Table 1); format: cell-based; conditions: Homo sapiens FAM86A, pLKO.1 vector
FAM86 (NM_027446.2) = assay: shRNA mean knockdown level of FAM86 (Table 1); format: cell-based; conditions: Mus musculus FAM86, pLKO.1 vector
protein FAM86A = assay: Western blotting of protein FAM86A after α-MSH treatment; format: cell-based, mouse; conditions: B16F10 cells, α-MSH 100 nM, 48 hours
Experimental: The B16F10 cells cultured in Example 1 were seeded in 6-well plates at a density of 5×10^4 cells per well, grown for 24 hours, and then treated with α-MSH at 100 nM. The cells were incubated in an incubator under conditions of 37° C. and 5% CO2 for 48 hours, and washed with PBS twice. Subsequently, PBS was completely removed, and then 200 μL of RIPA buffer, which is a tissue lysis and staining reagent, was added to each plate, followed by harvesting cells with a scraper. Afterward, a BCA assay was conducted to quantify proteins, and electrophoresis was performed using 10% SDS-PAGE. The protein in the resulting SDS-PAGE gel was transferred onto a PVDF membrane, and the resulting PVDF membrane onto which the protein transfer had been completed was blocked in TBS-T (in 100 mM NaCl, 10 mM Tris, 0.1% (v/v) Tween-20, pH 7.4 (PBST) containing 3% BSA) at room temperature. After washing three times with TBS-T for 10 minutes, a primary antibody in 3% BSA dissolved in TBS-T was treated for 1 hour, and then sufficiently washed with TBS-T. In addition, a secondary antibody for 1 hour, and washed three times with PBS-T for 10 minutes each. Subsequently, the amount and location of a specific protein were confirmed using an ECL detection system. […]

[1] = tested on: tyrosinase, TYRP-1, TYRP-2, MITF and FAM86A genes; assay: Real-time PCR of melanogenesis-associated genes and FAM86A after α-MSH treatment; format: cell-based, mouse; conditions: B16F10 cells, α-MSH 100 nM, 48 hours
Experimental: The B16F10 cells cultured in Example 1 were seeded in 6-well plates at a density of 5×10^4 cells per well, grown for 24 hours, and then treated with α-MSH at 100 nM. The cells were incubated in an incubator under conditions of 37° C. and 5% CO2 for 48 hours. After 48 hours of incubation, the medium was completely removed, the cells were decomposed with TRIzol and neutralized using BCP. The neutralized liquid was treated with isopropanol to precipitate mRNA. Subsequently, only the precipitated mRNA was collected using a centrifuge, and used for the experiment. Intracellular mRNA was synthesized into cDNA using a cDNA kit, and the expression levels of tyrosinase, TYRP-1, TYRP-2, MITF and FAM86A genes, which are important for melanogenesis, were determined by PCR.

B16F10 cells = assay: Melanogenesis induced by α-MSH (melanin content assay); format: cell-based, mouse; conditions: α-MSH 100 nM, 48 hours

Substance: SEQ ID NO: 11: FAM86A shRNA (Homo sapiens, NM_201400.4), pLKO.1 vector, target sequence SEQ ID NO: 21 (DNA CCGGGCAGAAACTGTTTCCCTACGACTCGAGTCGTAGGGAAACAGTTTCTGCTTTTTG)
Mean Knock down level (FAM86A (NM_201400.4)): 0.93

Substance: SEQ ID NO: 16: FAM86 shRNA (Mus musculus, NM_027446.2), pLKO.1 vector, target sequence SEQ ID NO: 26 (DNA CCGGGAGCATTCAGCCATCGTAATCCTCGAGGATTACGATGGCTGAATGCTCTTTTTG)
Mean Knock down level (FAM86 (NM_027446.2)): 0.56

Substance: SEQ ID NO: 12: FAM86A shRNA (Homo sapiens, NM_201400.4), pLKO.1 vector, target sequence SEQ ID NO: 22 (DNA CCGGCGAGGGAATGTCCTTCTCAATCTCGAGATTGAGAAGGACATTCCCTCGTTTTTG)
Mean Knock down level (FAM86A (NM_201400.4)): 0.84

Substance: SEQ ID NO: 13: FAM86A shRNA (Homo sapiens, NM_201400.4), pLKO.1 vector, target sequence SEQ ID NO: 23 (DNA CCGGGATGTTGTCATTGCAGCAGATCTCGAGATCTGCTGCAATGACAACATCTTTTTG)
Mean Knock down level (FAM86A (NM_201400.4)): 0.79

Substance: SEQ ID NO: 14: FAM86A shRNA (Homo sapiens, NM_201400.4), pLKO.1 vector, target sequence SEQ ID NO: 24 (DNA CCGGGCCAGCAGTTCTGGTTCTTAACTCGAGTTAAGAACCAGAACTGCTGGCTTTTTG)
Mean Knock down level (FAM86A (NM_201400.4)): 0.77

expression level of FAM86A gene [1]: decreased | expression level of MITF gene [1]: significantly increased | expression level of TYRP-1 gene [1]: significantly increased | expression level of TYRP-2 gene [1]: significantly increased | expression level of tyrosinase gene [1]: significantly increased
Substance: Ac-Ser-Tyr-Ser-Met-Glu-His-Phe-Arg-Trp-Gly-Lys-Pro-Val-NH2 [α-MSH]
expression level of the protein FAM86A (protein FAM86A): decreases | melanogenesis (B16F10 cells): increased

Substance: SEQ ID NO: 15: FAM86A shRNA (Homo sapiens, NM_201400.4), pLKO.1 vector, target sequence SEQ ID NO: 25 (DNA CCGGGCAGACATCACTGCCAAGTTACTCGAGTAACTTGGCAGTGATGTCTGCTTTTTG)
Mean Knock down level (FAM86A (NM_201400.4)): 0.6
